Measured values as given in patent publication US7001887B2, “Peptide derivatives” (priority 2001, dated 2006).
Read-outs that look alike come from different tables or passages of the source.

Tests used:
human factor VIIa = human factor VIIa (Homo sapiens, UniProt P08709); assay: biochemical
Description: 1. Assay for FVIIa-inhibiting Activity
A 10 vol % DMSO solution of a test compound (20 μL) was mixed with 40 μL Thromborel®S (50 mg/mL, Dade Behring, GTS-200A), 20 μL Spectrozyme®fVIIa (5 mmol/L, American Diagnostica Inc., #217L), 20 μL Tris buffer (500 mmol/L Tris/HCl, pH 7.5, 1500 mmol/L NaCl, 50 mmol/L CaCl2) and 80 μL distilled water, followed by stirring. […] The initial reaction velocity was set to 100% in the case of adding 10 vol % DMSO alone, instead of a test compound. […] This concentration was defined as an IC50 value.

human thrombin = biological target: T1, human thrombin (Homo sapiens, UniProt P00734); assay: Assay for thrombin-inhibiting activity (chromogenic substrate FVR-pNa); assay type: biochemical; settings: for Thrombin selectivity: ratio IC50 Thrombin / IC50 Factor VIIa
T1 construct: addition of 20 μ2L human thrombin (5 U/mL, SIGMA, T 1063); purchased SIGMA T 1063

[1] = 50% inhibition of initial reaction velocity, room temperature, absorbance at 405 nm, read-out: IC50 Thrombin

human factor VIIa, sequence (P08709 213-466 limits assumed): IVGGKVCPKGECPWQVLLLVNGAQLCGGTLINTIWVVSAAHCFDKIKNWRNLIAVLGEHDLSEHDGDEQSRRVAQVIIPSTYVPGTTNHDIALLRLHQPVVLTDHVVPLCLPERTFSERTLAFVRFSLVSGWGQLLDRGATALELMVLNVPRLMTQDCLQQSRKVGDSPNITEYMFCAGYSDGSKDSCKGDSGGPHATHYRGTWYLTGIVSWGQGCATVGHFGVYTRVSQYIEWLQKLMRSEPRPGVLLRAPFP
human factor VIIa, sequence (P08709 61-212 limits assumed): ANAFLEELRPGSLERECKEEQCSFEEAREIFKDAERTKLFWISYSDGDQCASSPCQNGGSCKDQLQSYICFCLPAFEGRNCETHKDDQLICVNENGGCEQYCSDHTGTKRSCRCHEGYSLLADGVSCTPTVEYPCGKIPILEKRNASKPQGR
human factor VIIa, sequence (P13726 33-295 partner): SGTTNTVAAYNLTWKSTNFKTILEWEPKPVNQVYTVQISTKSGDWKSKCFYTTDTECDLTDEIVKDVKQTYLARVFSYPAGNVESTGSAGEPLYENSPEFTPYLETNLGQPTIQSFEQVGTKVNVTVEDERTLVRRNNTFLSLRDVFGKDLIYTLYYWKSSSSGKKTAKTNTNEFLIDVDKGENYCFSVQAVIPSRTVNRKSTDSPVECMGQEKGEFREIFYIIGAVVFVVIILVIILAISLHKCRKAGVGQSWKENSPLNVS

| SMILES | IC50 (human factor VIIa) | IC50 (human thrombin; [1]) | Thrombin selectivity (human thrombin) | IC50 (human thrombin) |
| --- | --- | --- | --- | --- |
| CCS(=O)(=O)N[C@H](Cc1c[nH]c2ccccc12)C(=O)N[C@@H](CCC(N)=O)C(=O)NCc1ccc(C(=N)N)cc1 [Example 5, N-(Ethylsulfonyl)-D-tryptophyl-N^1-(4-amidinobenzyl)-L-glutamide] | 62 nM | 5.88 µM | 95 |  |
| N=C(N)c1ccc(CNC(=O)[C@H](CCC(N)=O)NC(=O)[C@@H](Cc2c[nH]c3ccccc23)NS(=O)(=O)Cc2cccc(C(=O)O)c2)cc1 [Example 7] | 37 nM | 17.9 µM | 483 |  |
| CCS(=O)(=O)N[C@H](Cc1c[nH]c2ccc(OCc3cccc(C(=O)O)c3)cc12)C(=O)N[C@@H](CCC(N)=O)C(=O)NCc1ccc(C(=N)N)cc1 [Example 22, 5-[(3-Carboxybenzyl)oxy]-N-(ethylsulfonyl)-D-tryptophyl-N^1-{4-[amino(imino)methyl]benzyl}-L-glutamide] | 39 nM | 17.5 µM |  |  |
| CCS(=O)(=O)N[C@H](Cc1ccc(-c2ccccc2)cc1)C(=O)N[C@@H](CCC(N)=O)C(=O)NCc1ccc(C(=N)N)cc1 [Example 65] |  | 9.42 µM |  |  |
| N=C(N)c1ccc(CNC(=O)[C@H](CCC(N)=O)NC(=O)[C@H](N)Cc2ccc(-c3ccccc3)cc2)cc1 [Example 66] | 2940 nM | 59.1 µM | 20 |  |
| CCS(=O)(=O)N[C@H](Cc1ccc(-c2ccccc2)cc1)C(=O)N[C@@H](CCSC)C(=O)NCc1ccc(C(=N)N)cc1 [Example 67] | 341 nM |  | 1 | 2.28 µM |
| CCS(=O)(=O)N[C@H](Cc1ccc(OC)cc1)C(=O)N[C@@H](CCC(N)=O)C(=O)NCc1ccc(C(=N)N)cc1 [Example 73] | 81 nM | 0.397 µM | 5 |  |
| CCS(=O)(=O)N[C@H](Cc1ccc(C(=O)c2ccccc2)cc1)C(=O)N[C@@H](CCC(N)=O)C(=O)NCc1ccc(C(=N)N)cc1 [Example 81] | 177 nM | 5.69 µM |  |  |
| CCS(=O)(=O)N[C@H](Cc1c[nH]c2ccc(C)cc12)C(=O)N[C@@H](CCC(N)=O)C(=O)NCc1ccc(C(=N)N)cc1 [Example 82] | 131 nM | 12.5 µM |  |  |
| CCCOc1ccc2[nH]cc(C[C@@H](NS(=O)(=O)CC)C(=O)N[C@@H](CCC(N)=O)C(=O)NCc3ccc(C(=N)N)cc3)c2c1 [Example 83] | 55 nM | 14.4 µM |  |  |
| N=C(N)c1ccc(CNC(=O)[C@H](CCC(N)=O)NC(=O)[C@@H](Cc2c[nH]c3ccccc23)NS(=O)(=O)CC(=O)O)cc1 [Example 146] | 153 nM | 80.2 µM | 524 |  |
| CCS(=O)(=O)N[C@H](Cc1c[nH]c2ccc(OC)cc12)C(=O)N[C@@H](CCC(N)=O)C(=O)NCc1ccc(C(=N)N)cc1 [Example 148] | 65 nM | 8.33 µM |  |  |
| CCS(=O)(=O)N[C@H](Cc1c[nH]c2ccc(OCc3ccccc3)cc12)C(=O)N[C@@H](CCC(N)=O)C(=O)NCc1ccc(C(=N)N)cc1 [Example 170] | 37 nM | 9.42 µM |  |  |
